In patent US20140350119A1, “OPHTHALMIC COMPOSITION COMPRISING GERANYLGERANYLACETONE” (ROHTO PHARMACEUTICAL CO., LTD., priority 2012, published 2014):

Experiments:
[1] = system: rat models with glaucoma induced by NMDA; assay: Protective effect for retinal ganglion cells against nerve damage by NMDA (thickness of inner plexiform layer); assay type: in vivo, Sprague-Dawley (SD) rats; conditions: once per day
Source text: In recent years the glutamate analogue NMDA (N-methyl-D-aspartate) has been widely reported to be one of causative agents of neurodegenerative diseases including Alzheimer's disease. In the ophthalmic field, NMDA is considered to be involved in optic nerve damage in glaucoma (Brain Research Bulletin, 81 (2010) 349-358). Accordingly, in this experiment rat models with glaucoma induced by NMDA were used to evaluate the neuroprotective effect of GGA.
To Sprague-Dawley (SD) rats, the all-trans form, the 5Z-mono-cis form and teprenone were separately pre-administered by oral administration (Test Example 1), intravitreal administration (Test Example 2) or ocular instillation administration (Test Example 3) and 5 μL of NMDA was administered into the vitreous body to induce nerve damage. For Test Example 2, a marketed therapeutic eye drop for glaucoma, AIPHAGAN (trade name), was intravitreally administered as a positive control once a day for five days. For each of Test Examples, a base not containing GGA or AIPHAGAN was administered as a control in the same manner as described above.
The dosage and regimen of Test Examples 1 to 3 are shown in Table 1 and the constitution of the base used in each tests are shown in Table 2.
Three days after administration of NMDA, the eyeballs were harvested, fixed with half Karnovsky's fixative for 24 hours, embedded in paraffin, thin sectioned and stained with hematoxylin-eosin (HE) to prepare histopathological sections. The histological sections were observed under an optical microscope and the thickness (μm) of the inner plexiform layer (IPL) of the retina was measured. From the thickness of the inner plexiform layer (IPL) of the retina, the neuroprotective effects of the test preparations were evaluated.

PC12 = assay: Protective effect against ischemic cell death induced by hypoxia and low glucose (cell viability, Cell Titer-Glo); assay type: cell-based, rat; conditions: 30 μM, 2 h, then low glucose, zero percent O2, 8 h, FIG. 1, Tukey-Kramer test
Source text: The progress of visual impairment in glaucoma is associated with retinal ganglion cell (RGC) death due to blood flow failure occurring near the optic nerve (Folia Pharmacol. Jpn. 128, 255-258 (2006)). With the use of PC12, which is a typical neural cell line established from rat adrenal […] pheochromocytoma and used also as a model cell for the functional evaluation of RGC (J Neurosci Res. 2000 May 15; 60(4): 495-503.), the cytoprotective effect of GGA against ischemic cell death induced by hypoxia and low glucose was evaluated.
Test samples were prepared as follows. The test substances were four types of GGAs that contain the all-trans form and the 5Z-mono-cis form at a weight ratio of 10:0, 8:2, 6:4, and 0:10, respectively. […]
After 8 hours of incubation, 100 μL of an equivalent mixture of a cell viability detection reagent Cell Titer-Glo (Promega) and PBS was added to each well and the luminescence produced by the reaction with ATP in living cells was measured with a luminometer (GloMax; Promega). The cell viability was calculated from the measured luminescence by the following formula and the cytoprotective effect of GGA against […] was examined.
Cell viability (%)=100×[(luminescence of base- or GGA-treated group)/(luminescence of non-treated group)]

[2] = system: retinal detachment-induced animal; conditions: intraperitoneal administration; Non Patent Literature 1; cited from earlier work
glaucoma rat model = conditions: intraperitoneal administration; Non Patent Literature 2; cited from earlier work
[3] = system: multiple sclerosis mouse model; conditions: oral administration; Non Patent Literature 5; cited from earlier work
[4] = system: mouse with retinal injury induced by ischemia; conditions: oral administration; Non Patent Literature 4; cited from earlier work
[5] = system: mouse with visual cell damage induced by light irradiation; conditions: oral administration; Non Patent Literature 3; cited from earlier work
[6] = Test Example 1: oral, 800 mg/kg, 2 days, NMDA 4 mM, FIG. 6

Q: Which “Neuroprotective effect against nerve damage by NMDA compared with the base (IPL thickness)” value [1, 6] does the source give for `CC(=O)CC/C=C(/C)CC/C=C(\C)CC/C=C(\C)CCC=C(C)C` [5Z-mono-cis form, (5Z,9E,13E)-6,10,14,18-tetramethyl-5,9,13,17-nonadecatetrae n-2-one] here?
A: Its value is “significant neuroprotective effects”.

Q: What about the “Neuroprotective effect against nerve damage by NMDA compared with the base (IPL thickness)” value ([1]; Test Example 2: intravitreal, 0.05% w/v, 5 days, NMDA 40 mM, FIG. 7) of the same molecule?
A: The value was “significant neuroprotective effects”.

Q: And the “Cytoprotective effect compared with GGA of weight ratio 6:4” value (PC12)?
A: The value was “significantly higher cytoprotective effects”.

Q: Which results are given for teprenone?
A: Apoptosis of visual cells [2]: reduced the apoptosis of visual cells significantly; Expression of heat shock protein 70 [2]: induced the expression of heat shock protein 70; Expression of heat shock protein 72 (glaucoma rat model): induced the expression of heat shock protein 72; Optic nerve damage (glaucoma rat model): ameliorated optic nerve damage; Retinal ganglion cell death (glaucoma rat model): reduced retinal ganglion cell death; Neuroprotective effect against nerve damage by NMDA compared with the base (IPL thickness) [1, 6]: did not show a significant neuroprotective effect; Cell loss in the ganglion [3]: prevented cell loss; Number of degenerating axons in the optic nerve [3]: reduced the number of degenerating axons; Visual function [3]: improved the visual function; Number of surviving retinal neurons [4]: significantly increased; Thioredoxin and heat shock protein 72 in the retinal pigment epithelium [5]: induced thioredoxin and heat shock protein 72
